Measured values from US8273771B2, “Ischemic disorder or disease inhibitors” (Pronas Pharma AB, priority 2007, dated 2012).

How the values were obtained:
MCA and BA from SAH rats = experiment: Myograph contractile response to ET-1 in cerebral arteries of treated SAH rats; set-up: species or system rat; conditions: in vivo treated SAH rats compared to SAH rats, no significant difference to sham
Method: After 48 hours of observation sham, SAH treated with SB386023-b or treated with the PKC inhibitor RO-31-7549 or U0126 or SAH+vehicle operated rats (see above SAH model) were anaesthetized with CO2 and decapitated. The brains were quickly removed and chilled in ice-cold bicarbonate buffer solution (see composition below). Under a dissection microscope, the middle cerebral artery (MCA), the basilar artery (BA) and circle of Willis were carefully dissected free from the brain and cleared of connective tissue. The MCA and BA were immediately mounted in myographs for in vitro pharmacology or snap frozen at −80° C. and examined by real-time PCR.
In vitro Pharmacology Myograph Experiments For contractile experiments a sensitive myograph was used for recording the isometric tension in isolated cerebral arteries (Hogestatt et al., (1983, Mulvany and Helpern, 1977). The vessels were cut into 1 mm long cylindrical segments and mounted on two 40 μm in diameter stainless steel wires in a Myograph (Danish Myo Technology A/S, Denmark). One wire was connected to a force displacement transducer attached to an analog-digital converter unit (ADInstruments, Oxford, UK). The other wire was connected to a micrometer screw, allowing fine adjustments of vascular tone by varying the distance between the wires. Measurements were recorded on a computer by use of a PowerLab unit (ADInstruments). […]

AT1 receptor mRNA = experiment: Real-time PCR of receptor mRNA in cerebral arteries after SAH; assay type: in vivo, rat; conditions: MCA, BA and circle of Willis grouped; SAH rats

SMILES | ET-1 induced contractile response (MCA and BA from SAH rats) | enhanced expression of AT1 receptor mRNA (AT1 receptor mRNA)
Cn1cc(C2=C(c3cn(CCCN)c4ccccc34)C(=O)NC2=O)c2ccccc21 [RO-31-7549] | significantly attenuated | –
Oc1cc(-c2nc(-c3ccccc3)[nH]c2-c2ccncc2)ccc1Cl [SB386023-b] | significantly attenuated | inhibited
